Here are results for five compounds from ChEMBL document CHEMBL4673339, “Immunomodulatory Constituents of Conocephalum conicum (Snake Liverwort) and the Relationship of Isolepidozenes to Germacranes and Humulanes” (J Nat Prod, 2020).

The source made the active and inactive calls. The calls are words filed in the database; no cut-off is given here.

Data set [1] has as its system Splenocyte. Briefly: Immunomodulatory activity in Wistar rat splenocytes assessed as decrease in LPS-induced cell proliferation at 0.1 to 100 uM after 48 hrs by MTT assay. Type of data set: functional, cell-based. As to conditions: dose 0.1-100 µM. A general note: Tetrazolium dyes change colour on reduction, which living cells bring about.
A short description of data set [2]: Cytotoxicity against Wistar rat splenocytes assessed as reduction in cell viability at 100 to 500 uM after 24 hrs by MTT assay. The format is tissue-based. The note with it: splenocyte, dose 100-500 µM.
Data set [3] can be described thus: Cytotoxicity against Wistar rat splenocytes assessed as cell viability at >10 uM after 24 to 48 hrs by MTT assay. Type of data set: tissue-based. The note with it: splenocyte, time 24-48 hrs.
Data set [4] has as its system Splenocyte. Briefly: Immunomodulatory activity in Wistar rat splenocytes assessed as decrease in ConA-induced cell proliferation at 0.1 to 500 uM after 48 hrs by MTT assay. The format is functional, cell-based. The note with it: dose 0.1-500 µM.
For data set [5], the system named is Splenocyte. Briefly: Immunomodulatory activity in Wistar rat splenocytes assessed as decrease in LPS-induced cell proliferation at 0.1 to 10 uM after 48 hrs by MTT assay. The format is functional, cell-based. The note with it: dose 0.1-10 µM.
Data set [6] has as its system Splenocyte. Description: Immunomodulatory activity in Wistar rat splenocytes assessed as decrease in LPS-induced cell proliferation at 500 uM after 48 hrs by MTT assay. The format is functional, cell-based.
Data set [7] is described as follows: Cytotoxicity against Wistar rat splenocytes assessed as cell viability at 0.1 uM after 48 hrs by MTT assay. The note with it: splenocyte. Type of data set: tissue-based.
The nature of data set [8]: Cytotoxicity against Wistar rat splenocytes assessed as reduction in cell viability at 0.1 to 500 uM after 48 hrs by MTT assay. The format is tissue-based. As to conditions: splenocyte, dose 0.1-500 µM.
Data set [9] can be described thus: Cytotoxicity against Wistar rat splenocytes assessed as cell viability at 100 uM after 48 hrs by MTT assay relative to control. Type of data set: tissue-based, Splenocyte. As to conditions: read-out: Activity.
The nature of data set [10]: Cytotoxicity against Wistar rat splenocytes assessed as reduction in cell viability at 100 uM after 48 hrs by MTT assay relative to control. The format is tissue-based. The note with it: splenocyte.

As to `C/C1=C\[C@@H]2[C@@H](CC/C(CO)=C/CC1)C2(C)C` (relative stereo), the outcome in the data set on Splenocyte [1] was inactive. The Activity result in data set [2] and in data set [3] was “Toxic” in each case. Besides, the outcome in the data set on Splenocyte [4] was Active.
Turning to `C[C@H]1CCC2=C(C(C)(C)O)CC(C)(C)C[C@@H]21` (relative stereo), the Activity entry is given as “Toxic” in data set [2] and “Non-Toxic” in [7]. In addition, the outcome in the data set on Splenocyte [5] and with Splenocyte [4] was Active. In addition, the result in the data set with Splenocyte [6] was inactive.
As to `C[C@@H]1/C=C/C(C)(C)[C@H](O)CC/C(CO)=C/CC1` (relative stereo), the Activity entry in data set [2] and in data set [8] was “Toxic” throughout. The result with Splenocyte [5] and with Splenocyte [4] was Active. In addition, the outcome in the data set with Splenocyte [6] was inactive. Further, the viability at 48 h, 100 µM in [9] was found to be 60%.
Regarding `C[C@@H]1/C=C/[C@H](C(C)(C)O)CC/C(CO)=C/CC1` (relative stereo), the Activity entry in data set [2] and in data set [3] was “Toxic” each time. Further, the result in the data set on Splenocyte [5] and in the data set on Splenocyte [4] was Active. Besides, the result in the data set on Splenocyte [6] was inactive.
Take `C[C@@H]1C[C@H]2[C@@H]3CCC4=CC(=O)C=C[C@]4(C)[C@@]3(F)[C@@H](O)C[C@]2(C)[C@@]1(O)C(=O)CO` [DEXAMETHASONE]: the Activity in data set [10] was 65%.
